Converted amounts (≈) assume the structure as drawn. “And” between values parts separate entries of the source, which are not always exact repeats. Identical values can stand only once. Like-named read-outs stand apart in the source and are kept apart here.
Tests used:
S. aureus [1] = experiment: MIC in broth, serum, serum ultrafiltrate and albumin (protein binding); format: cell-based; conditions: Staphylococcus aureus
Description: This degree of binding was considered in subsequent pharmacodynamic analyses. The degree of binding in human serum would be estimated to be 96%.

[2] = Pharmacokinetics and renal excretion in healthy subjects; format: in vivo, human; conditions: single 1000 mg IV
Description: Blood samples were drawn into heparinized tubes and centrifuged. Plasma was separated and stored frozen at −20° C. until time of assay. Plasma and urine samples were assayed for dalbavancin using validated LC/MS/MS methods. […] The peak concentration (Cmax) values were obtained directly from the observed data. The area under the plasma concentration-time curve (AUC) was calculated using the linear trapezoidal rule. Clearance (CL) was computed as dose/AUC. The elimination half life (t1/2) was estimated by linear regression of the log-linear portion of the log concentration versus time curve. Estimates of the volume of distribution (VZ) was calculated using the regression parameters, while the volume of distribution at steady state (Vss) was calculated from the area under the first moment curve (AUMC) multiplied by the dose and divided by AUC. The cumulative amount of dalbavancin excreted in urine was determined as the integrand of the urine excretion rate (AURC). CLR, or renal clearance, was calculated as the ratio: CLR=AURC/AUC.

Gram-positive pathogen = experiment: Phase II SSTI trial: microbiologic response, all organisms; format: in vivo, human; conditions: microbiologically-evaluable population
Description: (§1) Microbiological outcome, a secondary efficacy variable, was assessed in the subpopulation of patients who had microbiologically documented SSTI (i.e., at least one identified baseline pathogen). A microbiologic response was assessed for each Gram-positive pathogen identified at baseline (i.e., eradication, presumed eradication, persistence, presumed persistence). For patients for whom follow-up cultures were not performed, the microbiologic responses for baseline pathogens were presumed on the basis of the clinical response. Microbiologic response by patient at the EOT and FU visits was graded as success (i.e., all Gram-positive organisms eradicated or presumed eradicated) or failure (i.e., at least one Gram-positive organism persisted or presumed to have persisted, multiple pathogens with partial eradication). At both the EOT and FU visits, colonization and superinfection were assessed. At the FU visit, a patient's bacteriological response could also include recurrence.

S. aureus [3] = experiment: Phase II SSTI trial: microbiologic response, S. aureus; format: in vivo, human
Description: as §1

S. aureus [4] = experiment: Murine thigh-infection model; format: in vivo, mice; conditions: for 1 Log Kill mg/kg/72 h / 2 Log Kill mg/kg/72 h: q 72 h regimen; for 1 log kill dose: SA29213, total dose over 6 days
Description: Each point represents the mean of 4 thighs. Five dose levels, ranging 16-fold were used.
Five different doses (two-fold increases) were used. Study against S. aureus utilized total dose (mg/kg/6 d) levels ranging from 30 to 480 mg/kg/6 d. […] Each point represents the mean of 4 thighs.
Each point represents the mean of four thighs.

[5] = test system: skin and soft tissue infections (SSTI); experiment: Phase II trial in deep skin and soft tissue infections: clinical response; format: in vivo, human; conditions: for clinical success rate at FU: clinically-evaluable population; for clinical success rate, deep or complicated SSTI at baseline: exploratory subanalysis
Description: This randomized, controlled study evaluated the safety and efficacy of two dose regimens of dalbavancin.
There were 62 patients randomized into the study; all received at least one dose of study medication. Four study populations were evaluated for safety and efficacy and were defined as follows: The intent-to-treat (ITT) population included all patients who received at least one dose of study drug (all randomized study subjects).
The effectiveness of the three treatment regimens was determined by assessing the patients' clinical response and the documented or presumed microbiological responses. The primary efficacy endpoint was clinical response at the follow-up visit for the clinically evaluable population. Clinical response, for both EOT and FU visits, was categorized as success (cure or improvement) or failure (including indeterminate results). Patients classified as successes must not have received additional systemic antibacterial treatment for their infection. Failure was defined as persistence of one or more local or systemic signs and symptoms of SSTI such that treatment with new or additional systemic antibacterial agents was required for the SSTI.

CN[C@H]1C(=O)N[C@@H]2Cc3ccc(cc3)Oc3cc4cc(c3O[C@@H]3O[C@H](C(=O)O)[C@@H](O)[C@H](O)[C@H]3NC(=O)CCCCCCCCC(C)C)Oc3ccc(cc3Cl)[C@@H](O)[C@@H]3NC(=O)[C@H](NC(=O)[C@@H]4NC(=O)[C@@H](NC2=O)c2cc(cc(O)c2Cl)Oc2cc1ccc2O)c1ccc(O)c(c1)-c1c(O[C@H]2O[C@H](CO)[C@@H](O)[C@H](O)[C@@H]2O)cc(O)cc1[C@@H](C(=O)NCCCN(C)C)NC3=O [Dalbavancin] gave an MIC (S. aureus [1]; MRSA, read-out: MIC 95% Human Albumin, S. aureus strain MRSA) of 8 µg/mL (≈ 4.4 µM), an MIC (S. aureus [1]; MRSA, read-out: MIC 95% Human Serum, S. aureus strain MRSA) of 8 µg/mL (≈ 4.4 µM) and an MIC (S. aureus [1]; MRSA, read-out: MIC 95% Mouse Serum Ultrafiltrate, S. aureus strain MRSA) of 0.5 µg/mL (≈ 0.275 µM). For the same compound, the MIC (S. aureus [1]; MRSA, read-out: MIC 95% Mouse Serum, S. aureus strain MRSA) was 32 µg/mL (≈ 17.6 µM), the MIC (S. aureus [1]; human serum and albumin) was 8 µg/mL (≈ 4.4 µM) and the MIC (S. aureus [1]; mouse serum ultrafiltrate) was 0.5 µg/mL (≈ 0.275 µM). It also gave an MIC (S. aureus [1]; read-out: MIC 95% Human Albumin, S. aureus strain 25923) of 8 µg/mL (≈ 4.4 µM), an MIC (S. aureus [1]; read-out: MIC 95% Human Serum, S. aureus strain 25923) of 8 µg/mL (≈ 4.4 µM) and an MIC (S. aureus [1]; read-out: MIC 95% Mouse Serum Ultrafiltrate, S. aureus strain 25923) of 0.5 µg/mL (≈ 0.275 µM). For the same compound, the MIC (S. aureus [1]; read-out: MIC 95% Mouse Serum, S. aureus strain 25923) was 32 µg/mL (≈ 17.6 µM), the MIC (S. aureus [1]; read-out: MIC (arithmetic), 95% mouse serum) was 32 µg/mL (≈ 17.6 µM) and the t1/2 [2] was 220 to 288 h. The “eradication/presumed eradication rate at FU, all organisms” value (Gram-positive pathogen; single-dose dalbavancin) was 58%, the “microbiologic success rate at EOT” value (Gram-positive pathogen; single-dose dalbavancin) was 38.5% and the “microbiologic success rate at FU” value (Gram-positive pathogen; single-dose dalbavancin) was 27.3%. The “eradication/presumed eradication rate at FU, all organisms” value (Gram-positive pathogen; two-dose dalbavancin) was 92%, the “microbiologic success rate at EOT” value (Gram-positive pathogen; two-dose dalbavancin) was 72.7% and the “microbiologic success rate at FU” value (Gram-positive pathogen; two-dose dalbavancin) was 72.7%. The “S. aureus eradication rate at FU” value (S. aureus [3]; single-dose dalbavancin) was 50%, the “S. aureus eradication rate at FU” value (S. aureus [3]; two-dose dalbavancin) was 90% and the “1 Log Kill mg/kg/72 h” value (S. aureus [4]; MRSA, 6 days of therapy) was 62 mg/kg/72 h. The “2 Log Kill mg/kg/72 h” value (S. aureus [4]; MRSA, 6 days of therapy) was 85 mg/kg/72 h, the “1 Log Kill mg/kg/72 h” value (S. aureus [4]; Mean ± SD of S. aureus strains) was 94 ± 46 mg/kg/72 h and the “2 Log Kill mg/kg/72 h” value (S. aureus [4]; Mean ± SD of S. aureus strains) was 120 ± 54 mg/kg/72 h. The “1 log kill dose” value (S. aureus [4]; q 36 h) was 36 mg/kg, the “1 log kill dose” value (S. aureus [4]; q 72 h) was 31 mg/kg and the “1 Log Kill mg/kg/72 h” value (S. aureus [4]; SA33591, 6 days of therapy) was 93 mg/kg/72 h. For the same compound, the “1 Log Kill mg/kg/72 h” value (S. aureus [4]; SA307109, 6 days of therapy) was 34 mg/kg/72 h, the “2 Log Kill mg/kg/72 h” value (S. aureus [4]; SA307109, 6 days of therapy) was 37 mg/kg/72 h and the “1 Log Kill mg/kg/72 h” value (S. aureus [4]; SA Smith, 6 days of therapy) was 95 mg/kg/72 h. The “drop in cfu over the 6 day study” value (S. aureus [4]; all strains) was > 4 log10, the “free drug AUC/MIC over the 6 days of therapy required for efficacy” value (S. aureus [4]; net static effect, 1 or 2 log kill) was ~1000 and the “clinical success rate at FU” value ([5]; single-dose dalbavancin (1100 mg IV day 1)) was 61.5%. The “clinical success rate at FU” value ([5]; two-dose dalbavancin (1 g IV day 1, 500 mg IV day 8)) was 94.1% and 94%, the “clinical success rate, deep or complicated SSTI at baseline” value ([5]; single-dose dalbavancin) was 58.3% and the “clinical success rate, deep or complicated SSTI at baseline” value ([5]; two-dose dalbavancin) was 93.8%.

From patent US20170190744A1 (Vicuron Pharmaceuticals, Inc., priority 2015, published 2017)
